{"source": "patent US20250084101A1", "about": "“COMPOUND FOR INHIBITING AND DEGRADING IRAK4, AND PHARMACEUTICAL COMPOSITION AND PHARMACEUTICAL APPLICATION THEREOF” (XIZANG HAISCO PHARMACEUTICAL CO., LTD., priority 2022, published 2025)", "key": {"[1]": {"assay": "Pharmacokinetic test in mice", "type": "in vivo, ICR mice", "conditions": "male, ICR, mouse, plasma, po, 10 mg/kg, i.g. 10 mg/kg, read-out: AUC0-t", "experimental": "Experimental animals: Male ICR mice, about 25 g, 6 mice/compound, purchased from Chengdu Ddossy Experimental Animals Co., Ltd.\nTest design: On the day of the experiment, 6 ICR mice were randomly grouped according to their body weights. The animals were fasted with water available for 12 to 14 h one day before the administration, and were fed 4 h after the administration.\n• Vehicle for intravenous administration: 5% DMA+5% Solutol+90% Saline; • Vehicle for intragastric administration: 5% DMSO+30% PEG400+65% (20% SBE-CD); (DMSO: dimethyl sulfoxide; DMA: dimethylacetamide; Solutol: polyethylene glycol-15-hydroxystearate; PEG400: polyethylene glycol 400; SBE-β-CD: sulfobutyl-β-cyclodextrin; Saline: physiological saline)\nBefore and after the administration, 0.15 mL of blood was taken from the orbit of the animals under isoflurane anesthesia and placed in an EDTAK2 centrifuge tube. The blood was centrifuged at 5000 rpm and 4° C. for 10 min to collect plasma. The blood collection time points for the intravenous administration group and intragastric administration group were 0 min, 5 min, 15 min, 30 min, 1 h, 2 h, 4 h, 7 h and 24 h. Before analysis and detection, all samples were stored at −60° C. The samples were analyzed quantitatively by LC-MS/MS."}, "IRAK4 protein": {"molecular_target": "T1, IRAK4 protein (Homo sapiens, UniProt Q9NWZ3)", "T1 construct": "endogenous in cells; host or cells: human peripheral blood mononuclear cells (hPBMC) from healthy volunteers", "T1 sequence (Q9NWZ3 1-460)": "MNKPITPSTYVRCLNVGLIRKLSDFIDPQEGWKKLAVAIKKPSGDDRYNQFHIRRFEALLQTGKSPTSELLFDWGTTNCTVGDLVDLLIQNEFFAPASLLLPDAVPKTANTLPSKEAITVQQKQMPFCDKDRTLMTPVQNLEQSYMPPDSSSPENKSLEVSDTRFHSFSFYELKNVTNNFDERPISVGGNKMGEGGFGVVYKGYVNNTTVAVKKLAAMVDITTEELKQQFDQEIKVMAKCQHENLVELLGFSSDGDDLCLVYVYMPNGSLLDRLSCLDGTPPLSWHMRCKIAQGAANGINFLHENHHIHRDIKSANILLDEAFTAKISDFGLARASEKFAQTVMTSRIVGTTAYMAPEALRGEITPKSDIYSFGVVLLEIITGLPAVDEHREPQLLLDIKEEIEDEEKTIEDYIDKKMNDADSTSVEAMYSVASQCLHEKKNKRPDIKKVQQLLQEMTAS", "assay": "IRAK4 degradation activity in hPBMC cells (24 hours)", "type": "cell-based", "conditions": "100 nM, relative to vehicle control", "experimental": "hPBMC cells are human peripheral blood mononuclear cells. Peripheral venous blood was taken from healthy volunteers, and hPBMCs were isolated using Ficoll density gradient centrifugation (Ficoll-Paque™ PLUS 1.077, GE, Cat. 17-1140-02). Culture conditions: RPMI-1640+10% FBS+1% penicillin-streptomycin solution. The cells were cultured in an incubator at 37° C. and 5% CO2. The cells were plated in a 24-well plate at 1×10^6 cells/well. After plating, compounds at different concentrations were added, and the cells were cultured in an incubator at 37° C. and 5% CO2 for 24 hours. After the culture was completed, the cells were collected, and RIPA lysis buffer (beyotime, Cat. P0013B) was added. The cells were lysed on ice for 20 minutes, and then centrifuged at 12000 rpm at 4° C. for 10 minutes. The protein sample of the supernatant was collected, the protein was quantified using a BCA kit (Beyotime, Cat. P0009), and then the protein was diluted to 1 mg/mL. The expression of IRAK4 (CST, Cat. 4363S) and the internal reference cofilin (CST, Cat. 5175S) were detected using a fully automated western blot quantitative analyzer (Proteinsimple). The expression level of IRAK4 relative to the internal reference was calculated using compass software. The remaining IRAK4 protein IRAK4% relative to the vehicle control group at different doses was calculated using formula (1), and the IRAK4 protein degradation relative to the vehicle control group at different doses was calculated using formula (2), where IRAK4administration was the expression level of IRAK4 in the administration groups at different doses, and IRAK4vehicle was the expression level of IRAK4 in the vehicle control group. An IRAK4 degradation-drug concentration curve was fit using Graphpad Prism 8 software, and the DC50 was calculated."}, "[2]": {"molecular_target": "T2, hERG potassium ion channel (Homo sapiens, UniProt Q12809)", "T2 construct": "expressed in transfected cells; host or cells: CHO (Chinese hamster ovary) cells stably expressing hERG", "T2 sequence (Q12809 whole entry)": "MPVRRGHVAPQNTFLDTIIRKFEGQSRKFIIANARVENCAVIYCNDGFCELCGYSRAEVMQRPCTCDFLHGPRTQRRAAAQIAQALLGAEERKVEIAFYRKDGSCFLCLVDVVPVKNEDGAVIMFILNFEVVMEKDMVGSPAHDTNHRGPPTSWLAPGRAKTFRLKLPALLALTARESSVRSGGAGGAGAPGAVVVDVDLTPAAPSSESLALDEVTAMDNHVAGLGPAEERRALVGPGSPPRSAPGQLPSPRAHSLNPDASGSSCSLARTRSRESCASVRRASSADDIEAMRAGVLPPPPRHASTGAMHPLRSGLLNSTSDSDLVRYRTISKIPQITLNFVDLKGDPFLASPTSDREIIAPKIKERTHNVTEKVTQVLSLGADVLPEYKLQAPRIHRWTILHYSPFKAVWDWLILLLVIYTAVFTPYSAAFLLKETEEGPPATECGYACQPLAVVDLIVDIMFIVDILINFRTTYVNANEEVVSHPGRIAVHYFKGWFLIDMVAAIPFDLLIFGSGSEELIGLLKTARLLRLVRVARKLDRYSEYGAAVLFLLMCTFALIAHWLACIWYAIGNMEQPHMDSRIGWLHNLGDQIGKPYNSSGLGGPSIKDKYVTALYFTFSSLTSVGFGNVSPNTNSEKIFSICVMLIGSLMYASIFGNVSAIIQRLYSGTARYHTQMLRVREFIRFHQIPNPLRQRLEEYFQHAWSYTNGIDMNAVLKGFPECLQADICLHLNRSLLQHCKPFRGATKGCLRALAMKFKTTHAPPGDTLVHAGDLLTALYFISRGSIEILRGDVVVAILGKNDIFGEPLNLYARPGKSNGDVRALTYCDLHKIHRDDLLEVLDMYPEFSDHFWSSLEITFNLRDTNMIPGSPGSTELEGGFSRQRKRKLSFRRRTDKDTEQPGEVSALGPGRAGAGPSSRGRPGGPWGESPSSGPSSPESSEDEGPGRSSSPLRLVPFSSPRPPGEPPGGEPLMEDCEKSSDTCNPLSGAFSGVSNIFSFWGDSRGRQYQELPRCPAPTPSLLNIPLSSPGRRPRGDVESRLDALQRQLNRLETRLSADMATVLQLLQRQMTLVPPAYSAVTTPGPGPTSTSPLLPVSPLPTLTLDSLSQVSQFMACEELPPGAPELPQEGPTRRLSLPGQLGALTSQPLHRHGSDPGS", "assay": "Effect on hERG potassium ion channel (manual patch-clamp, CHO cells)", "type": "cell-based", "conditions": "CHO cells stably expressing hERG, whole cell patch-clamp; read-out: IC50 for inhibitory effect on hERG potassium channel current", "text": "Experimental platform: electrophysiological manual patch-clamp system\nCell line: Chinese hamster ovary (CHO) cell line stably expressing hERG potassium ion channel\nExperimental method: In CHO (Chinese Hamster Ovary) cells stably expressing hERG potassium channel, whole cell patch-clamp technique was used to record hERG potassium channel current at room temperature. The glass microelectrode was made of a glass electrode blank (BF150-86-10, Sutter) by a puller. The tip resistance after filling the liquid in the electrode was about 2-5 MQ. The glass microelectrode can be connected to the patch-clamp amplifier by inserting the glass microelectrode into an amplifier probe. The clamping voltage and data recording were controlled and recorded by the pClamp 10 software through a computer. The sampling frequency was 10 kHz, and the filtering frequency was 2 kHz. After the whole cell records were obtained, the cells were clamped at −80 mV, and the step voltage that induced the hERG potassium current (lhERG) was depolarized from −80 mV to +20 mV for 2 s, then repolarized to −50 mV, and returned to −80 mV after 1 s. This voltage stimulation was given every 10 s, and the administration process was started after the hERG potassium current was confirmed to be stable (at least 1 minute). The compound was administered for at least 1 minute at each test concentration, and at least 2 cells (n≥2) were tested at each concentration.\nData processing: Data analysis processing was carried out by using pClamp 10, GraphPad Prism 5 and Excel software. The inhibition degree of hERG potassium current (peak value of hERG tail current induced at −50 mV) at different compound concentrations was calculated by the following formula:\n[formula] • where Inhibition % represents the percentage of inhibition of hERG potassium current by the compound, and l and lo represent the amplitude of hERG potassium current after and before the administration, respectively.\nCompound IC50 was calculated using GraphPad Prism 5 software by fitting according to the following equation:\n[formula] • where X represents the Log value of the tested concentration of the test sample, Y represents the inhibition percentage at the corresponding concentration, and Bottom and Top represent the minimum and maximum inhibition percentage, respectively."}}}
{"smiles": "Cn1nc(C2CCC(=O)NC2=O)c2cccc(C#CCO[C@H]3CCN(C[C@H]4CC[C@H](n5cc(NC(=O)c6cnn7ccc(N8C[C@H]9C[C@@H]8CO9)nc67)c(C(F)F)n5)CC4)C[C@H]3F)c21", "note": "(stereo partly drawn) [Compound 11]", "values": [{"measurement": "AUC(0-t)", "setting": "[1]", "value": "8750 ± 4650", "unit": "ng·h/mL"}, {"measurement": "Remaining IRAK4 protein IRAK4%", "setting": "IRAK4 protein", "value": "A (A ≤ 10%)"}, {"measurement": "IC50", "setting": "[2]", "value": "> 30", "unit": "µM"}]}
